Reference: PubChem BioAssay AID248 (DTP/NCI, 2004)
Several values for one entry are separate records, joined by “and”; a condition that tells them apart may be missing. Equal entries are not always repeated. Toxic doses and inconclusive results are not listed. Rule as the data show it: active = T/C of 150% or more; inactive = T/C below 125%.

System: L1210 leukemia ip in BDF1 mice, survival T/C
Experiment: NCI In Vivo Anticancer Drug Screen. Data for tumor model L1210 Leukemia (intraperitoneal) in B6D2F1 (BDF1) mice
Conditions: endpoint: mean survival time, higher = longer survival
Summary of the method: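 Transplantable tumor model; survival measured in treated vs vehicle control mice. Value = treated/control.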

[1] = dose: 100.0 mg/kg/injection, schedule: Q04DX002 (ip), vehicle: saline
[2] = dose: 200.0 mg/kg/injection, schedule: Q04DX002 (ip), vehicle: saline
[3] = dose: 100.0 mg/kg/injection, schedule: Q04DX003 (ip), vehicle: Klucel (hydroxypropylcellulose) (HPC)
[4] = dose: 200.0 mg/kg/injection, schedule: Q04DX003 (ip), vehicle: Klucel (hydroxypropylcellulose) (HPC)
[5] = dose: 400.0 mg/kg/injection, schedule: Q04DX003 (ip), vehicle: Klucel (hydroxypropylcellulose) (HPC)
[6] = dose: 100.0 mg/kg/injection, schedule: Q01DX001 (ip), vehicle: carboxymethylcellulose (CMC)
[7] = dose: 200.0 mg/kg/injection, schedule: Q01DX001 (ip), vehicle: carboxymethylcellulose (CMC)
[8] = dose: 400.0 mg/kg/injection, schedule: Q01DX001 (ip), vehicle: carboxymethylcellulose (CMC)
[9] = dose: 25.0 mg/kg/injection, schedule: Q01DX001 (ip), vehicle: saline
[10] = dose: 50.0 mg/kg/injection, schedule: Q01DX001 (ip), vehicle: saline
[11] = dose: 100.0 mg/kg/injection, schedule: Q01DX001 (ip), vehicle: saline
[12] = dose: 200.0 mg/kg/injection, schedule: Q01DX001 (ip), vehicle: saline
[13] = dose: 50.0 mg/kg/injection, schedule: Q01DX009 (ip), vehicle: saline with Tween-80
[14] = dose: 100.0 mg/kg/injection, schedule: Q01DX009 (ip), vehicle: saline with Tween-80
[15] = dose: 200.0 mg/kg/injection, schedule: Q01DX009 (ip), vehicle: saline with Tween-80
[16] = dose: 50.0 mg/kg/injection, schedule: Q01DX009 (ip), vehicle: Klucel (hydroxypropylcellulose) (HPC)
[17] = dose: 100.0 mg/kg/injection, schedule: Q01DX009 (ip), vehicle: Klucel (hydroxypropylcellulose) (HPC)
[18] = dose: 200.0 mg/kg/injection, schedule: Q01DX009 (ip), vehicle: Klucel (hydroxypropylcellulose) (HPC)
[19] = dose: 50.0 mg/kg/injection, schedule: Q01DX009 (ip), vehicle: saline
[20] = dose: 100.0 mg/kg/injection, schedule: Q04DX002 (ip), vehicle: Klucel (hydroxypropylcellulose) (HPC)
[21] = dose: 200.0 mg/kg/injection, schedule: Q04DX002 (ip), vehicle: Klucel (hydroxypropylcellulose) (HPC)
[22] = dose: 400.0 mg/kg/injection, schedule: Q01DX009 (ip), vehicle: saline with Tween-80
[23] = dose: 100.0 mg/kg/injection, schedule: Q04DX003 (ip), vehicle: saline with Tween-80
[24] = dose: 200.0 mg/kg/injection, schedule: Q04DX003 (ip), vehicle: saline with Tween-80
[25] = dose: 400.0 mg/kg/injection, schedule: Q04DX003 (ip), vehicle: saline with Tween-80

Measured: T/C

COc1c2c(c3ccccc3c1OC(C)=O)OC(C)(C)CC2
inactive: dose: 100.0 mg/kg/injection, schedule: Q01DX001 (ip), vehicle: saline with Tween-80 88 % of control | dose: 200.0 mg/kg/injection, schedule: Q01DX001 (ip), vehicle: saline with Tween-80 92 % of control | dose: 400.0 mg/kg/injection, schedule: Q01DX001 (ip), vehicle: saline with Tween-80 90 % of control

CCN(Cc1ccccc1)C(=S)NC1CCCCC1
inactive: [1] 96 % of control | [2] 96 % of control | dose: 400.0 mg/kg/injection, schedule: Q04DX002 (ip), vehicle: saline 100 % of control

CC(=O)c1ccc(CC2CC3CCC2C3)cc1 (configuration not stated)
inactive: dose: 100.0 mg/kg/injection, schedule: Q01DX001 (ip), vehicle: Klucel (hydroxypropylcellulose) (HPC) 112 % of control | [3] 94 % of control | dose: 200.0 mg/kg/injection, schedule: Q01DX001 (ip), vehicle: Klucel (hydroxypropylcellulose) (HPC) 96 % of control | [4] 89 % of control | dose: 400.0 mg/kg/injection, schedule: Q01DX001 (ip), vehicle: Klucel (hydroxypropylcellulose) (HPC) 89 % of control | [5] 98 % of control

C[N+](C)(N)Cc1ccc(C[N+](C)(C)N)cc1
inactive: [1] 108 % of control | [2] 97 % of control

COc1ccc(C(=O)C(Br)(Cc2ccccc2)OC)cc1 (configuration not stated)
inactive: dose: 66.0 mg/kg/injection, schedule: Q04DX003 (ip), vehicle: saline 93 % of control | dose: 100.0 mg/kg/injection, schedule: Q04DX003 (ip), vehicle: saline 94 % of control | dose: 150.0 mg/kg/injection, schedule: Q04DX003 (ip), vehicle: saline 94 % of control

CN(C)c1nc(N)nc2c1ncn2C1OC(CO)CC1O (configuration not stated)
inactive: [6] 120 % of control | [7] 98 % of control | [8] 101 % of control

CCCCCCCCCCCCOC(=O)C(Cl)(Cl)Cl
inactive: dose: 100.0 mg/kg/injection, schedule: Q01DX001 (ip), vehicle: other 93 % of control | dose: 100.0 mg/kg/injection, schedule: Q04DX003 (ip), vehicle: other 102 % of control | dose: 200.0 mg/kg/injection, schedule: Q01DX001 (ip), vehicle: other 96 % of control | dose: 200.0 mg/kg/injection, schedule: Q04DX003 (ip), vehicle: other 96 % of control | dose: 400.0 mg/kg/injection, schedule: Q01DX001 (ip), vehicle: other 93 % of control | dose: 400.0 mg/kg/injection, schedule: Q04DX003 (ip), vehicle: other 97 % of control

Cc1cc(N(CCCl)CCCl)ccc1C=Nc1ccc(-c2csc(-c3ccccc3)n2)c(Cl)c1
inactive: [6] 98 % of control | [7] 95 % of control | [8] 107 % of control

CC(=O)NCCSC(=O)C(=O)SCCNC(C)=O
inactive: [9] 115 % of control | dose: 25.0 mg/kg/injection, schedule: Q01DX Z (ip), vehicle: saline 102 % of control | [10] 102 % of control | dose: 50.0 mg/kg/injection, schedule: Q01DX Z (ip), vehicle: saline 96 % of control | [11] 102 % of control | dose: 100.0 mg/kg/injection, schedule: Q01DX Z (ip), vehicle: saline 96 % of control | [12] 94 % of control and 96 % of control and 104 % of control | dose: 450.0 mg/kg/injection, schedule: Q01DX001 (ip), vehicle: saline 86 % of control

CC(C)(C)C(Br)CBr (configuration not stated)
inactive: [13] 101 % of control | [14] 101 % of control | [15] 97 % of control

Cc1ccc(NC(=O)Nc2cccc(O)c2)c([N+](=O)[O-])c1
inactive: [16] 98 % of control | [17] 102 % of control | [3] 103 % of control | [18] 98 % of control | [4] 106 % of control | [5] 103 % of control

CC[N+]([O-])(CC)CCNc1ccc(CO)c2sc3ccccc3c(=O)c12
inactive: [19] 92 % of control | dose: 100.0 mg/kg/injection, schedule: Q01DX009 (ip), vehicle: saline 121 % of control

Cn1c(CCN=C(N)CSS(=O)(=O)O)nc2ccccc21
inactive: dose: 50.0 mg/kg/injection, schedule: Q04DX002 (ip), vehicle: Klucel (hydroxypropylcellulose) (HPC) 91 % of control | [20] 105 % of control | [21] 105 % of control and 112 % of control

CCOCCC(=O)CC(=O)OC
inactive: [13] 96 % of control | [14] 100 % of control | [15] 96 % of control

CCOC(=O)C1C2CCC/C(=N\NS(=O)(=O)c3ccc(C)cc3)C21 (configuration not stated)
inactive: [20] 104 % of control | [21] 100 % of control | dose: 400.0 mg/kg/injection, schedule: Q04DX002 (ip), vehicle: Klucel (hydroxypropylcellulose) (HPC) 96 % of control

Cc1ccc(/C(=C/c2ccc([N+](=O)[O-])cc2)C(=O)Nc2ccc(S(=O)(=O)F)cc2)cc1
inactive: [14] 94 % of control | [15] 89 % of control | [22] 86 % of control

CCOC(CNC(=O)OCc1ccccc1)OCC
inactive: [16] 98 % of control | [17] 96 % of control and 106 % of control | [3] 96 % of control | dose: 150.0 mg/kg/injection, schedule: Q01DX009 (ip), vehicle: Klucel (hydroxypropylcellulose) (HPC) 102 % of control | [18] 98 % of control | [4] 105 % of control | dose: 400.0 mg/kg/injection, schedule: Q01DX009 (ip), vehicle: Klucel (hydroxypropylcellulose) (HPC) 101 % of control | [5] 97 % of control

C=C1C(=O)OCC1(C(=O)OCC)C(=O)OCC
inactive: dose: 5.0 mg/kg/injection, schedule: Q01DX009 (ip), vehicle: saline 98 % of control | dose: 10.0 mg/kg/injection, schedule: Q01DX009 (ip), vehicle: saline 103 % of control | dose: 20.0 mg/kg/injection, schedule: Q01DX009 (ip), vehicle: saline 95 % of control

COc1ccc2c(c1)c(C)cc[n+]2C
inactive: dose: 12.5 mg/kg/injection, schedule: Q01DX001 (ip), vehicle: saline 108 % of control | dose: 12.5 mg/kg/injection, schedule: Q01DX009 (ip), vehicle: saline 109 % of control | [9] 110 % of control | dose: 25.0 mg/kg/injection, schedule: Q01DX009 (ip), vehicle: saline 107 % of control | [10] 110 % of control | [19] 124 % of control

CN(C)C(=O)C1C2C=CC(C2)C1C(=O)N(C)C (configuration not stated)
inactive: [23] 98 % of control | [24] 95 % of control | [25] 98 % of control

COC(=O)c1ccc(SSc2ccc(C(=O)OC)cc2[N+](=O)[O-])c([N+](=O)[O-])c1
inactive: [14] 103 % of control | [15] 102 % of control | [22] 92 % of control

CC(=O)C1CCCCC1
inactive: [23] 107 % of control | [24] 109 % of control | [25] 96 % of control

COC(c1ccccc1)C(OC)c1ccccc1 (configuration not stated)
inactive: dose: 50.0 mg/kg/injection, schedule: Q04DX003 (ip), vehicle: Klucel (hydroxypropylcellulose) (HPC) 96 % of control | [11] 109 % of control | [3] 98 % of control | [12] 94 % of control | [4] 98 % of control | dose: 400.0 mg/kg/injection, schedule: Q01DX001 (ip), vehicle: saline 103 % of control
